Test results reported in PubChem BioAssay AID651581 (Sanford-Burnham Center for Chemical Genomics, 2012).
Calls of active or inactive are those of the source. No rule for the calls is given here.

Experiments:
[1] = biological target: Hypoxia-inducible factor 1-alpha (Homo sapiens) (UniProt Q16665); assay: potency against HIF reporters across cell lines – luminescence, panel, selectivity assay for HIF-2a inhibitor project, dose response (AID 651581); conditions: human cell HIF reporter, HIF-1a
[2] = biological target: Endothelial PAS domain-containing protein 1 (Homo sapiens) (UniProt Q99814); assay: as above; conditions: human cell HIF reporter

Sequence of Hypoxia-inducible factor 1-alpha (Homo sapiens) (Q16665 whole entry, looked up, the tested form may be a part): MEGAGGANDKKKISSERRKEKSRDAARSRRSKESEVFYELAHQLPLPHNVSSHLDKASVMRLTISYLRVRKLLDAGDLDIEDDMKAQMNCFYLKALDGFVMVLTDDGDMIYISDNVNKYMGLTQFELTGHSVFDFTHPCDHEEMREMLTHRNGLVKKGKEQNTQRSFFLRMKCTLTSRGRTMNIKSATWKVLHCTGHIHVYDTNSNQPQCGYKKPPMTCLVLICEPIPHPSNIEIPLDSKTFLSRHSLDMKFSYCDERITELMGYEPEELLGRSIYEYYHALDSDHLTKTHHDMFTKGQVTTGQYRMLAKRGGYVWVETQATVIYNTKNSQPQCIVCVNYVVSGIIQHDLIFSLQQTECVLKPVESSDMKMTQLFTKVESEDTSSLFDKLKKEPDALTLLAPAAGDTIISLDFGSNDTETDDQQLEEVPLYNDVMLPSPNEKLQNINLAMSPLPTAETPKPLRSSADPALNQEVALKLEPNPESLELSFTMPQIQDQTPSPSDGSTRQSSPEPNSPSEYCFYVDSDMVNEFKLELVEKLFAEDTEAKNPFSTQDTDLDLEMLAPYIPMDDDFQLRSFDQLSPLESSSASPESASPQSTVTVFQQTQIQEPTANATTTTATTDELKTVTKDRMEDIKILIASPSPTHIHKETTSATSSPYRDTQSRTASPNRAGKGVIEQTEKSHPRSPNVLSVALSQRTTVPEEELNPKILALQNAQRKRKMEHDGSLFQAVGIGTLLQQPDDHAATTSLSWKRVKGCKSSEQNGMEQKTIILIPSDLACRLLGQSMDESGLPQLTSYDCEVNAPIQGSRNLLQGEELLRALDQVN

Work on `Cc1ccc(NC(=S)NNc2ncc(C(F)(F)F)cc2Cl)cc1` yielded an IC50 ([1]; mean of runs) of 27 µM, an IC50 ([1]; run 1) of 20.4 µM and an IC50 ([1]; run 2) of 33.5 µM. The IC50 ([2]; HIF-2a PANC, mean of runs) was 1.29 µM, the IC50 ([2]; HIF-2a PANC, run 1) was 1.66 µM and the IC50 ([2]; HIF-2a PANC, run 2) was 0.928 µM. The IC50 ([2]; HIF-2a, mean of runs) was 4.58 µM, the IC50 ([2]; HIF-2a, run 1) was 4.66 µM and the IC50 ([2]; HIF-2a, run 2) was 4.49 µM.
`O=C(Nc1ccccc1)c1nnsc1S(=O)(=O)c1ccc(Cl)cc1` showed an IC50 ([1]; mean of runs) of 28.6 µM, an IC50 ([1]; run 1) of 27 µM and an IC50 ([1]; run 2) of 30.2 µM. For the same compound, the IC50 ([2]; HIF-2a PANC, mean of runs) was “inactive”, the IC50 ([2]; HIF-2a PANC, run 1) was 44.3 µM and the IC50 ([2]; HIF-2a PANC, run 2) was 80.5 µM. It also gave an IC50 ([2]; HIF-2a, mean of runs) of 7.71 µM, an IC50 ([2]; HIF-2a, run 1) of 7.38 µM and an IC50 ([2]; HIF-2a, run 2) of 8.04 µM.
For `COC(=O)c1cccc(NC(=O)NC(=O)c2ccccc2Cl)c1`, the IC50 ([1]; run 1) was > 99 µM, the IC50 ([1]; run 2) was > 99 µM and the IC50 ([2]; HIF-2a PANC, run 1) was 17.6 µM. The IC50 ([2]; HIF-2a PANC, run 2) was > 99 µM, the IC50 ([2]; HIF-2a, mean of runs) was 7.56 µM and the IC50 ([2]; HIF-2a, run 1) was 7.45 µM. For the same compound, the IC50 ([2]; HIF-2a, run 2) was 7.66 µM.
In the case of `CS(=O)(=O)c1ccc(-c2cn3cc(C(=O)O)ccc3n2)cc1`, the IC50 ([1]; mean of runs) is reported as > 99 µM (inactive), the IC50 ([1]; run 1) is reported as > 99 µM and the IC50 ([1]; run 2) is reported as > 99 µM. For the same compound, the IC50 ([2]; HIF-2a PANC, run 1) was 86.7 µM, the IC50 ([2]; HIF-2a PANC, run 2) was > 99 µM and the IC50 ([2]; HIF-2a, mean of runs) was “inactive”. For the same compound, the IC50 ([2]; HIF-2a, run 1) was 28.8 µM and the IC50 ([2]; HIF-2a, run 2) was 47.2 µM.
With `CC(C)(C)c1ccc(-c2noc(CCC(=O)NCc3ccco3)n2)cc1` the IC50 ([1]; run 1) was < 0.19 µM, the IC50 ([1]; run 2) was 41.9 µM and the IC50 ([2]; HIF-2a PANC, mean of runs) was < 3 µM. The IC50 ([2]; HIF-2a PANC, run 1) was < 3 µM, the IC50 ([2]; HIF-2a PANC, run 2) was < 3 µM and the IC50 ([2]; HIF-2a, mean of runs) was < 1 µM. The IC50 ([2]; HIF-2a, run 1) was < 1 µM and the IC50 ([2]; HIF-2a, run 2) was < 1 µM.
In the case of `Cc1c(CCC(=O)N2CCC(C(=O)O)(c3ccccc3)CC2)c(=O)oc2cc3oc4c(c3cc12)CCCC4`, the IC50 ([1]; mean of runs) is reported as 5.97 µM, the IC50 ([1]; run 1) is reported as 7.31 µM and the IC50 ([1]; run 2) is reported as 4.63 µM. The IC50 ([2]; HIF-2a PANC, mean of runs) was 3.13 µM, the IC50 ([2]; HIF-2a PANC, run 1) was 3.77 µM and the IC50 ([2]; HIF-2a PANC, run 2) was 2.49 µM. For the same compound, the IC50 ([2]; HIF-2a, mean of runs) was 1.41 µM, the IC50 ([2]; HIF-2a, run 1) was 1.57 µM and the IC50 ([2]; HIF-2a, run 2) was 1.24 µM.
For `O=[N+]([O-])C1C(c2ccccc2)C12c1ccccc1-c1ccccc12` (centres undefined), the IC50 ([1]; mean of runs) was 40.8 µM, the IC50 ([1]; run 1) was 41.2 µM and the IC50 ([1]; run 2) was 40.3 µM. The IC50 ([2]; HIF-2a PANC, run 1) was > 99 µM, the IC50 ([2]; HIF-2a PANC, run 2) was < 3 µM and the IC50 ([2]; HIF-2a, mean of runs) was 7.05 µM. It also gave an IC50 ([2]; HIF-2a, run 1) of 7.84 µM and an IC50 ([2]; HIF-2a, run 2) of 6.26 µM.
In the case of `COC(=O)COc1ccc(-c2nccc(-c3ccc(Br)cc3)n2)cc1`, the IC50 ([1]; run 1) is reported as > 99 µM, the IC50 ([1]; run 2) is reported as > 99 µM and the IC50 ([2]; HIF-2a PANC, run 1) is reported as 6.31 µM. The IC50 ([2]; HIF-2a PANC, run 2) was > 99 µM, the IC50 ([2]; HIF-2a, mean of runs) was 7.51 µM and the IC50 ([2]; HIF-2a, run 1) was 7.55 µM. The IC50 ([2]; HIF-2a, run 2) was 7.47 µM.
In the case of `CSc1ccc(/C=N/Nc2cccc(C(=O)O)c2)cc1`, the IC50 ([1]; run 1) is reported as > 99 µM, the IC50 ([1]; run 2) is reported as > 99 µM and the IC50 ([2]; HIF-2a PANC, mean of runs) is reported as > 99 µM (inactive). The IC50 ([2]; HIF-2a PANC, run 1) was > 99 µM, the IC50 ([2]; HIF-2a PANC, run 2) was > 99 µM and the IC50 ([2]; HIF-2a, mean of runs) was 5.33 µM. For the same compound, the IC50 ([2]; HIF-2a, run 1) was 5.25 µM and the IC50 ([2]; HIF-2a, run 2) was 5.4 µM.
For `C=C1C(=O)OC2CC3(C)OC3C3OC3C3=CC(OC3=O)C12` (centres undefined), the IC50 ([1]; mean of runs) was 36.4 µM, the IC50 ([1]; run 1) was 33.9 µM and the IC50 ([1]; run 2) was 38.9 µM. The IC50 ([2]; HIF-2a PANC, run 1) was > 99 µM, the IC50 ([2]; HIF-2a PANC, run 2) was 59.7 µM and the IC50 ([2]; HIF-2a, mean of runs) was “inactive”. The IC50 ([2]; HIF-2a, run 1) was 11.4 µM and the IC50 ([2]; HIF-2a, run 2) was 10.3 µM.
`Cc1csc(NC(=O)CCc2c(C)nc3cc(-c4ccc(Cl)cc4)nn3c2C)n1` was tested, and the IC50 ([1]; run 1) was 0.486 µM, the IC50 ([1]; run 2) was < 10 µM and the IC50 ([2]; HIF-2a PANC, run 1) was < 0.19 µM. For the same compound, the IC50 ([2]; HIF-2a PANC, run 2) was 0.308 µM, the IC50 ([2]; HIF-2a, run 1) was < 1 µM and the IC50 ([2]; HIF-2a, run 2) was 0.344 µM.
Compound `CC(=O)Nc1ccc(OC(=O)N2CCCCC2)cc1` has an IC50 ([1]; mean of runs) of 11.4 µM, an IC50 ([1]; run 1) of 11.5 µM and an IC50 ([1]; run 2) of 11.2 µM. The IC50 ([2]; HIF-2a PANC, mean of runs) was 2.8 µM, the IC50 ([2]; HIF-2a PANC, run 1) was 1.96 µM and the IC50 ([2]; HIF-2a PANC, run 2) was 3.65 µM. It also gave an IC50 ([2]; HIF-2a, mean of runs) of 2.33 µM, an IC50 ([2]; HIF-2a, run 1) of 2.32 µM and an IC50 ([2]; HIF-2a, run 2) of 2.34 µM.
With `Nc1ccc(-c2nnn(CC(=O)N3CCCCC3)n2)cc1` the IC50 ([1]; run 1) was 15.7 µM, the IC50 ([1]; run 2) was > 99 µM and the IC50 ([2]; HIF-2a PANC, run 1) was > 99 µM. For the same compound, the IC50 ([2]; HIF-2a PANC, run 2) was 33.3 µM, the IC50 ([2]; HIF-2a, mean of runs) was “inactive” and the IC50 ([2]; HIF-2a, run 1) was 18.3 µM. For the same compound, the IC50 ([2]; HIF-2a, run 2) was 17 µM.
`Cc1ccc(S(=O)(=O)ON2C(=O)c3ccccc3C2=O)c(C)c1` was tested, and the IC50 ([1]; run 1) was > 99 µM, the IC50 ([1]; run 2) was > 99 µM and the IC50 ([2]; HIF-2a PANC, run 1) was > 99 µM. It also gave an IC50 ([2]; HIF-2a PANC, run 2) of 38.7 µM, an IC50 ([2]; HIF-2a, mean of runs) of 5.62 µM and an IC50 ([2]; HIF-2a, run 1) of 5.63 µM. The IC50 ([2]; HIF-2a, run 2) was 5.6 µM.
For `CCN(CC)S(=O)(=O)c1ccc(NC(=O)c2cccnc2Cl)c(NC(=O)c2cccnc2Cl)c1`, the IC50 ([1]; mean of runs) was “inactive”, the IC50 ([1]; run 1) was 8.13 µM and the IC50 ([1]; run 2) was 16.9 µM. The IC50 ([2]; HIF-2a PANC, mean of runs) was 9.99 µM, the IC50 ([2]; HIF-2a PANC, run 1) was 12.9 µM and the IC50 ([2]; HIF-2a PANC, run 2) was 7.07 µM. The IC50 ([2]; HIF-2a, mean of runs) was 10 µM, the IC50 ([2]; HIF-2a, run 1) was 9.42 µM and the IC50 ([2]; HIF-2a, run 2) was 10.6 µM.
